The text below walks through data of patent publication US7598280B2, “Heterocyclic compounds, compositions comprising them and methods of their use” (Lexicon Pharmaceuticals, Inc., priority 2007, dated 2009).

One assay has as its system circulating lymphocytes. Nature of the assay: Measuring effects on lymphocytes in mice. In kind it is in vivo. How it is done:
Unless otherwise indicated, the term “circulating lymphocyte reduction factor” or “CLRF” means the decrease in the number of circulating lymphocytes in mice caused by oral administration of a single dose of a compound at 100 mg/kg, as determined by the method described in the Examples, below.
Compounds were administered by oral gavage or in drinking water. For oral dosing experiments, compounds were resuspended from crystals at 10 mg/ml in vehicle (e.g., water). Mice (F1 hybrids of 129/B6 strain) were gavaged with a single 100 mg/kg dose of compound (equivalent to 100 mpk of the free base for each compound) or a vehicle-only control, and returned to their cages. Mice were anesthetized using isofluorane eighteen hours after dosing and tissues were collected for analysis as described below. For drinking water studies, compounds were dissolved at 50 mg/L in acidified water (pH=2.8) containing 10 g/L glucose. The mice were allowed free access to compound-containing water (or glucose solution as a control) for 72 hours. At the end of 72 hours, tissues were collected for analysis.
CBC measurements were obtained as follows. Mice were anesthetized with isofluorane and blood was collected from the retroorbital plexus into EDTA blood collection tubes (Capiject-MQK, Terumo Medical Corp., Elkton, Md.). […]

The target of the next assay is T1, S1P lyase (Mus musculus, UniProt Q8R0X7).
T1 construct: host or cells: mice (in vivo, endogenous enzyme)
T1 sequence (Q8R0X7 1-568): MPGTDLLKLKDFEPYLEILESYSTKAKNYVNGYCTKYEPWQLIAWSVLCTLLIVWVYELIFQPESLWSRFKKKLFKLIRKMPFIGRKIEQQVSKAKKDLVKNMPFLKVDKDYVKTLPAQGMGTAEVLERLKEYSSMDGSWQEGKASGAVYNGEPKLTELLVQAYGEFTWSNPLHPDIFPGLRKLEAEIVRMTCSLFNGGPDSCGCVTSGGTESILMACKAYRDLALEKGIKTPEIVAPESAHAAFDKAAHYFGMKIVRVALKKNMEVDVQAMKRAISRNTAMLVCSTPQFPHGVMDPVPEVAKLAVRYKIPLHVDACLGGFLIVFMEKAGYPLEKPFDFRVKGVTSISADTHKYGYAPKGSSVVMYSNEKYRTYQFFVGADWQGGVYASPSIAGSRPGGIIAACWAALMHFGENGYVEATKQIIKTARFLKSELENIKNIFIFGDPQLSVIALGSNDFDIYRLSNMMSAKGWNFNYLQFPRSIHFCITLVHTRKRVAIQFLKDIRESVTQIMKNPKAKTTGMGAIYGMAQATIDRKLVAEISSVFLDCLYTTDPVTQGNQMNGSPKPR
Conditions: when administered to mice; cited from earlier work.

Assay [1] concerns lymphocytes / mature T cells. Conditions: administration to rats and mice; cited from earlier work.
The test system of another assay is immunological effects. Conditions: studies in humans; cited from earlier work.

For the compound `CC(=O)c1nc(C)c([C@@H](O)[C@H](O)[C@H](O)CO)s1` [1-(4-methyl-5-((1S,2R,3R)-1,2,3,4-tetrahydroxybutyl)thiazol-2-yl)ethanone], the “effect on circulating lymphocytes” value in the assay on circulating lymphocytes is “little or no effect”.

`CC(=O)c1nc(C(O)C(O)C(O)CO)c[nH]1` (stereo not drawn) [THI, 2-acetyl-4-tetrahydroxybutylimidazole]: at S1P lyase, the S1P lyase activity entry is reported as “inhibits S1P lyase activity”. Also, in assay [1], the “accumulation of mature T cells in the thymus” value was “causes the accumulation of mature T cells in the thymus” and the lymphopenia result was “induces lymphopenia”. The “effect on circulating lymphocytes” value with circulating lymphocytes is “capable of reducing circulating lymphocytes”. In the assay with immunological effects, the immunological effects entry is reported as “no immunological effects”.
